The results in this text go back to US7517998B2, “Non nucleoside reverse transcriptase inhibitors” (priority 2004, dated 2009).

In one experiment the target is T1, K103NNY181C mutant reverse transcriptase (Human immunodeficiency virus type 1 group M subtype B, UniProt P04585, K690N/Y768C).
T1 construct: mutations that occur in the reverse transcriptase segment of the pol gene
The experiment can be described thus: Reverse transcriptase enzymatic assay (PicoGreen), K103N/Y181C mutant RT. It counts as biochemical, HIV-1. Conditions: IC50 mut (nM), mutant (K103N/Y181C) reverse transcriptase, enzymatic assay of Example 24. Here is the method: The enzymatic assay employed is described as follows: The reverse transcriptase (RT) enzyme assay has been adapted to a 96-well microtiter plate format and uses PicoGreen™ as a fluorescent intercalator. More explicitly, the HIV-1 RT enzyme was thawed and appropriately diluted into Tris/HCl 50 mM pH 7.8 containing NaCl 60 mM, MgCl2.6H2O 2 mM, DTT 6 mM, GSH 2 mM and 0.02% w/v Chaps to give ≈10 nM enzyme. To 10 μL of this enzyme solution was added 10 μL of inhibitor solution (40 μM to 2.032 nM inhibitor in the same assay buffer as above containing 4% v/v DMSO). The plate was pre-incubated for 15 minutes at room temperature before proceeding to the next step. In this pre-incubation step, the highest and lowest inhibitor concentrations were 20 μM and 1.016 nM respectively and the concentration of DMSO was 2% v/v. Then the enzymatic reaction was initiated by addition of 20 μL of substrate solution. The final reaction mixture contained Tris/HCl 50 mM pH 7.8, NaCl 60 mM, MgCl2.6H2O 2 mM, DTT 6 mM, GSH 2 mM, CHAPS 0.02% w/v, DMSO 1% v/v, poly rC 45 nM, dG15 4.5 nM, dGTP 3.6 μM, and 2.5 nM enzyme. In this incubation step, the highest and lowest inhibitor concentrations were 10 μM and 0.508 nM respectively. After addition of the substrate cocktail, the plate was covered with a plastic seal and incubated for 50 minutes at 37° C. in a dry incubator. The reaction was then quenched by addition of 5 μL of EDTA 0.5 M. The plate was shaken for 30 seconds at medium speed and incubated for 5 minutes at room temperature. Then 160 μL of PicoGreen™ 1:400 dilution from commercial stock (diluted in Tris 20 mM pH 7.5 with EDTA 1 mM) was added and the plate was shaken for 30 seconds and incubated for 10 minutes at room temperature. The plate was then analyzed using a POLARstar Galaxy fluorometer (BMG Labtechnologies) with λex and λem of 485 nm and 520 nm respectively. Each well was read for 1.25 second. Each row contained at its extremities a blank and a control well.
One may read the IC50 as the concentration needed to halve the response being measured. A lower IC50 goes with greater potency. For the compound `CC(C)(C)c1ccc(-n2nnnc2SCC(=O)Nc2ccc(NC(=O)NCc3ccccc3)cc2Cl)c(Cl)c1` [Compound 7008], half-maximal inhibition (IC50) was put at 428 nM.
Same read-out and setting: to `CC(C)(C)c1ccc(-n2nnnc2SCC(=O)Nc2ccc(NC(=O)Cc3cc[n+]([O-])cc3)cc2Cl)c(Cl)c1` [Compound 7046] belongs 140 nM; to `CC(C)(C)c1ccc(-n2nnnc2SCC(=O)Nc2ccc(NC(=O)c3cccc(O)c3)cc2Cl)c(Cl)c1` [Compound 7012], 128 nM.

Staying with this experiment, now noted: IC50 mut, K103N/Y181C mutant reverse transcriptase, enzymatic assay of Example 24.
`CC(C)(C#Cc1ccc(NC(=O)CSc2nnnn2-c2ccc(C(C)(C)C)cc2Cl)c(Cl)c1)OCC(=O)NNC(N)=O` [Compound 4056] had an IC50 of 26 nM.
Turning to `CC(C(=O)O)C(=O)NC(C)(C)C#Cc1ccc(NC(=O)CSc2nnnn2-c2ccc(C3CC3)cc2Cl)c(Cl)c1` (stereo not drawn) [Compound 4234], the midpoint of inhibition, the IC50, lay at 15.5 nM.
The same measure, in the same setting: under `CC(C)(C#Cc1ccc(NC(=O)CSc2nnnn2-c2ccc(C3CC3)cc2Cl)c(Cl)c1F)OCCN1CCNCC1` [Compound 4176] stands 108 nM; under `CC(C)(C#Cc1ccc(NC(=O)CSc2nnnn2-c2ccc(C3CC3)cc2Cl)c(Cl)c1)NC(=O)CN1CCCC1` [Compound 4123], 38 nM.
Same read-out and setting: under `O=C(CSc1nnnn1-c1ccc(C2CC2)cc1Cl)Nc1ccc(C#CCCN2CCNCC2)cc1Cl` [Compound 4135] stands 29 nM.
Still for that read-out and setting: to `CC(C)(C#Cc1ccc(NC(=O)CSc2nnnn2-c2ccc(CC3CC3)cc2Cl)c(Cl)c1)C(=O)NCCCN1CCCC1=O` [Compound 4244] belongs 217 nM.
Turning to `CC(C)(C#Cc1ccc(NC(=O)CSc2nnnn2-c2ccc(C3CC3)cc2Cl)c(Cl)c1)OCCOc1ccncc1` [Compound 4167], half-maximal inhibition (IC50) was put at 39.5 nM. This IC50 lies about 5.5-fold lower than the previous one.
On the same count and under the same terms, under `CC(C)(C#Cc1ccc(NC(=O)CSc2nnnn2-c2cc(C(C)(C)C)cc(Br)c2Cl)c(Cl)c1)NC(=O)CN1CCNCC1` [Compound 4224] stands 101 nM; under `CC(C)(C#Cc1ccc(NC(=O)CSc2nnnn2-c2cc(C(C)(C)C)cc(Br)c2Cl)c(Cl)c1)NC(=O)CNc1cc[n+]([O-])cc1` [Compound 4225], 162 nM; under `CC(C)(C#Cc1ccc(NC(=O)CSc2nnnn2-c2ccc(C3CC3)cc2Cl)c(Cl)c1)C(=O)NS(=O)(=O)c1ccccc1` [Compound 4183], 61 nM.
Compound `CC(C)(C#Cc1ccc(NC(=O)CSc2nnnn2-c2cc(C(F)(F)F)ccc2Cl)c(Cl)c1F)C(=O)NCCN1CCCC1` [Compound 4160] came in with an IC50 of 114 nM.
For the compound `CC(C)(C#Cc1ccc(NC(=O)CSc2nnnn2-c2cc(C(F)(F)F)ccc2Cl)c(Cl)c1)C(=O)O` [Compound 4196], half-maximal inhibition (IC50) was put at 198 nM.
For the compound `CC(C)(C#Cc1ccc(NC(=O)CSc2nnnn2-c2ccc(C(C)(C)C)cc2Cl)c(Cl)c1)OCC(=O)Nc1ccon1` [Compound 4054], the midpoint of inhibition, the IC50, lay at 35 nM.
Same read-out and setting: to `CC(C)(C#Cc1ccc(NC(=O)CSc2nnnn2-c2ccc(C3CC3)cc2Cl)c(Cl)c1)NCc1cc[n+]([O-])cc1` [Compound 4186] belongs 12 nM; to `CC(C)(C#Cc1ccc(NC(=O)CSc2nnnn2-c2cc(C3CC3)ccc2Cl)c(Cl)c1)NC(=O)CN1CCNCC1` [Compound 4195], 22.5 nM.

The same experiment, now with this note: IC50 mut, mutant reverse transcriptase, enzymatic assay of Example 24.
In turn, `CC(C)(COc1ccc(NC(=O)CSc2nnnn2-c2ccc(C3CC3)cc2Cl)c(Cl)c1)C(=O)O` [Compound 3046] showed an IC50 of 105 nM.
On the same count and under the same terms, under `O=C(CSc1nnnn1-c1ccc(C2CC2)cc1Cl)Nc1ccc(C(=O)NCCc2cc[n+]([O-])cc2)cc1Cl` [Compound 6035] stands 39 nM; under `O=C(CSc1nnnn1-c1ccc(C2CC2)cc1Cl)Nc1ccc(-c2ccc(OCCN3CCCCC3)c(Cl)c2)cc1Cl` [Compound 3038], 167 nM; under `CC(C)(C)c1ccc(-n2nnnc2SCC(=O)Nc2ccc(-c3ccc(S(C)(=O)=O)cc3)cc2Cl)c(Cl)c1` [Compound 2027], 23 nM.
As for `Cc1ccc(-c2c(OCC(=O)Nc3ccc(C#CC(C)(C)C(=O)O)cc3Cl)n[nH]c2C)c(Cl)c1` [Compound 1015], half-maximal inhibition (IC50) required 48 nM. Against the preceding compound, the IC50 is about 2.1-fold higher.
The same measure, in the same setting: under `CC(C)(C)c1ccc(-n2nnnc2SCC(=O)Nc2ccc(C(=O)NCCO)cc2Cl)c(Cl)c1` [Compound 6016] stands 35 nM.
